# From patent US12011448B2, “Therapeutic or preventing agent for nephrotic syndrome including indole compound” (Japan Tobacco Inc., priority 2018, dated 2024)
# Tests used:
# [1] = system: rat anti-glomerular basement membrane (GBM) antibody induced nephritis model; experiment: rat anti-GBM antibody induced nephritis model (urinary protein excretion, plasma total cholesterol); type: in vivo; conditions: disease animal model showing nephrotic syndrome-like symptoms
# Method: Using a rat anti-GBM antibody induced nephritis model, the suppressive effect of Compound A on an increase in urinary protein excretion and plasma total cholesterol concentration so was evaluated. The evaluation was performed by reference to non-patent document 2. As the experiment animal, 8-week-old female WKY/NCrlCrlj rat (CHARLES RIVER LABORATORIES JAPAN, INC.) was used. Monohydrochloride of Compound A was dissolved in 0.5% (w/v) methylcellulose (MC) to prepare 2 mg/mL and 6 mg/mL Compound A solutions. Ciclosporin (Wako Pure Chemical Industries, Ltd., 0.5% (w/v)) was suspended in MC to prepare a 2 mg/mL Ciclosporin suspension. […]
# As for urine, the urine volume was measured, after which the protein concentration in the centrifugal supernatant was measured by absorbance at wavelength 600 nm/sub-wavelength 660 nm using a total protein assay kit (micro TP-Test Wako, Wako Pure Chemical Industries, Ltd.). The urinary protein excretion (mg/day) was calculated from the urine volume and the protein concentration.
# As for blood, the total cholesterol concentration (mg/dL) in plasma obtained by centrifugation was measured using a biochemical automatic analysis apparatus (Hitachi automatic analysis apparatus 7180, Hitachi High-Technologies).
# The mean of the urinary protein excretion and the plasma total cholesterol concentration was calculated.
# [2] = target: T1, inducible T cell kinase (ITK) (Homo sapiens, UniProt Q08881); conditions: described in patent document 1 (WO 2011/065402); cited from earlier work
# T1 sequence (Q08881 1-620): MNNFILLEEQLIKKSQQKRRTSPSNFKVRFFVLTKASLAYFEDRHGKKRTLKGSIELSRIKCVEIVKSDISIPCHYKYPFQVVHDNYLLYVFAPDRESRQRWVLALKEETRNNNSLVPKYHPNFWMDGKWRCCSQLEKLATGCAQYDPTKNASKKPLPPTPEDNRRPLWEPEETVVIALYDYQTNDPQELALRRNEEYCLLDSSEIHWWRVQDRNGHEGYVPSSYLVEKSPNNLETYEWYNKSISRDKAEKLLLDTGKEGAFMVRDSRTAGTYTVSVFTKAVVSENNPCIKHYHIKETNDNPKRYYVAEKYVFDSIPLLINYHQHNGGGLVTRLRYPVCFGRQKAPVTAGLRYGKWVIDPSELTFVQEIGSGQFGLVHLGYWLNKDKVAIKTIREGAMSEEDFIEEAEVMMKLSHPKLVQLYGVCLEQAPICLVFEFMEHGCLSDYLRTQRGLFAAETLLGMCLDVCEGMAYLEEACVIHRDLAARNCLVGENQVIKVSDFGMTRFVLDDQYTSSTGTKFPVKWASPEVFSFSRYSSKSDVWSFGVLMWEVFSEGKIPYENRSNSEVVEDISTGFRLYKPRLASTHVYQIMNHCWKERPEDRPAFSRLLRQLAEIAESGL
smiles,measurement,setting,value
"C[C@@H](C(=O)N(C)c1ccc2cc(-c3n[nH]c4c3CCC(C)(C)C4)[nH]c2c1)N1CCOCC1 [Compound A, N-[2-(6,6-dimethyl-4,5,6,7-tetrahydro-1H-indazol-3-yl)-1H-indol-6-yl]-N-methyl-(2S)-2-(morpholin-4-yl)propanamide]",severity of the disease,[1],significantly reduce severity of the disease
same,inducible T cell kinase (ITK) inhibitory activity,[2],has an inducible T cell kinase (ITK) inhibitory activity
